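Five concentrations, 48 hours, 96-well plates. The concentration for 50% growth inhibition is given as GI50.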 Active and inactive are the calls of the source. No stated cut-off is given here; in the data, active = GI50 up to about 1.1 µM and inactive = higher.
Legend:
Experiment in all cases: inhibition of tumour cell growth, NCI panel, 48 h
HOP-92 = tested on: HOP-92
NCI-H522 = tested on: NCI-H522
OVCAR-5 = tested on: OVCAR-5
LOX IMVI = tested on: LOX IMVI
SK-MEL-2 = tested on: SK-MEL-2
SK-MEL-5 = tested on: SK-MEL-5
NCI-H460 = tested on: NCI-H460
HCT-15 = tested on: HCT-15
CCRF-CEM = tested on: CCRF-CEM
SF-539 = tested on: SF-539
KM-20L2 = tested on: KM-20L2
SNB-75 = tested on: SNB-75
UACC-257 = tested on: UACC-257
DMS-273 = tested on: DMS-273
SNB-19 = tested on: SNB-19
HT-29 = tested on: HT-29
CAKI-1 = tested on: CAKI-1
COLO 205 = tested on: COLO 205
IGROV-1 = tested on: IGROV-1
TK-10 = tested on: TK-10
A498 = tested on: A498
OVCAR-4 = tested on: OVCAR-4
RXF 393 = tested on: RXF 393
XF498 = tested on: XF498
SF-295 = tested on: SF-295
HCC 2998 = tested on: HCC 2998
DLD-1 = tested on: DLD-1
U-251 = tested on: U-251
M14 = tested on: M14
NCI-H23 = tested on: NCI-H23
SF-268 = tested on: SF-268
UO-31 = tested on: UO-31
NCI-H226 = tested on: NCI-H226
MOLT-4 = tested on: MOLT-4
KM12 = tested on: KM12
M19-MEL = tested on: M19-MEL
A549 = tested on: A549
LXFL 529 = tested on: LXFL 529
ACHN = tested on: ACHN
SR = tested on: SR
HCT-116 = tested on: HCT-116
SNB-78 = tested on: SNB-78
SK-MEL-28 = tested on: SK-MEL-28
HL-60 = tested on: HL-60
K562 = tested on: K562
SK-OV-3 = tested on: SK-OV-3
OVCAR-8 = tested on: OVCAR-8
UACC-62 = tested on: UACC-62
SW-620 = tested on: SW-620
RPMI-8226 = tested on: RPMI-8226
EKVX = tested on: EKVX
HOP-62 = tested on: HOP-62
SN12C = tested on: SN12C
Malme-3M = tested on: Malme-3M
786-0 = tested on: 786-0
HOP-18 = tested on: HOP-18
OVCAR-3 = tested on: OVCAR-3

Structure (SMILES): COC(=O)C(NC(=O)c1ccccc1)C(c1ccc(Cl)cc1)P(=O)(OC)OC (stereo not drawn)
- GI50 (HOP-92): > 100 µM (inactive)
- GI50 (NCI-H522): > 100 µM (inactive)
- GI50 (OVCAR-5): > 100 µM (inactive)
- GI50 (LOX IMVI): > 100 µM (inactive)
- GI50 (SK-MEL-2): > 100 µM (inactive)
- GI50 (SK-MEL-5): > 100 µM (inactive)
- GI50 (NCI-H460): > 100 µM (inactive)
- GI50 (HCT-15): > 100 µM
- GI50 (CCRF-CEM): > 100 µM (inactive)
- GI50 (SF-539): > 100 µM (inactive)
- GI50 (KM-20L2): > 100 µM (inactive)
- GI50 (SNB-75): > 100 µM (inactive)
- GI50 (UACC-257): > 100 µM (inactive)
- GI50 (DMS-273): > 100 µM (inactive)
- GI50 (SNB-19): > 100 µM (inactive)
- GI50 (HT-29): > 100 µM (inactive)
- GI50 (CAKI-1): > 100 µM (inactive)
- GI50 (COLO 205): > 100 µM (inactive)
- GI50 (IGROV-1): > 100 µM (inactive)
- GI50 (TK-10): > 100 µM (inactive)
- GI50 (A498): > 100 µM (inactive)
- GI50 (OVCAR-4): > 100 µM (inactive)
- GI50 (RXF 393): 33.9 µM (inactive)
- GI50 (XF498): > 100 µM (inactive)
- GI50 (SF-295): 97.5 µM (inactive)
- GI50 (HCC 2998): > 100 µM (inactive)
- GI50 (DLD-1): > 100 µM (inactive)
- GI50 (U-251): > 100 µM (inactive)
- GI50 (M14): > 100 µM (inactive)
- GI50 (NCI-H23): 91.4 µM (inactive)
- GI50 (SF-268): > 100 µM (inactive)
- GI50 (UO-31): > 100 µM (inactive)
- GI50 (NCI-H226): > 100 µM (inactive)
- GI50 (MOLT-4): > 100 µM (inactive)
- GI50 (KM12): > 100 µM (inactive)
- GI50 (M19-MEL): > 100 µM (inactive)
- GI50 (A549): > 100 µM (inactive)
- GI50 (LXFL 529): > 100 µM (inactive)
- GI50 (ACHN): > 100 µM (inactive)
- GI50 (SR): > 100 µM (inactive)
- GI50 (HCT-116): > 100 µM (inactive)
- GI50 (SNB-78): > 100 µM (inactive)
- GI50 (SK-MEL-28): > 100 µM (inactive)
- GI50 (HL-60): > 100 µM (inactive)
- GI50 (K562): > 100 µM (inactive)
- GI50 (SK-OV-3): > 100 µM (inactive)
- GI50 (OVCAR-8): > 100 µM (inactive)
- GI50 (UACC-62): > 100 µM (inactive)
- GI50 (SW-620): > 100 µM (inactive)
- GI50 (RPMI-8226): > 100 µM (inactive)
- GI50 (EKVX): > 100 µM (inactive)
- GI50 (HOP-62): > 100 µM (inactive)
- GI50 (SN12C): > 100 µM (inactive)

Structure (SMILES): Cc1ccc2nc(NC(=O)C(=O)CC(=O)c3cccc4ccccc34)sc2c1
- GI50 (Malme-3M): 27 µM (inactive)
- GI50 (HOP-92): 14.8 µM (inactive)
- GI50 (OVCAR-5): > 100 µM (inactive)
- GI50 (LOX IMVI): 32.2 µM (inactive)
- GI50 (SK-MEL-2): 35.5 µM (inactive)
- GI50 (SK-MEL-5): 23.1 µM (inactive)
- GI50 (NCI-H460): 52 µM (inactive)
- GI50 (HCT-15): 59.2 µM
- GI50 (CCRF-CEM): 30.8 µM (inactive)
- GI50 (SF-539): 24.7 µM (inactive)
- GI50 (KM-20L2): 46.3 µM (inactive)
- GI50 (SNB-75): 16.9 µM (inactive)
- GI50 (UACC-257): 27.2 µM (inactive)
- GI50 (DMS-273): 40.4 µM (inactive)
- GI50 (SNB-19): 39.7 µM (inactive)
- GI50 (HT-29): 36 µM (inactive)
- GI50 (CAKI-1): 22.2 µM (inactive)
- GI50 (COLO 205): 60.4 µM (inactive)
- GI50 (IGROV-1): 31.7 µM (inactive)
- GI50 (TK-10): 24.1 µM (inactive)
- GI50 (A498): 63.5 µM (inactive)
- GI50 (OVCAR-4): 16.2 µM (inactive)
- GI50 (XF498): 45.9 µM (inactive)
- GI50 (SF-295): 19.9 µM (inactive)
- GI50 (786-0): 20.2 µM (inactive)
- GI50 (HCC 2998): 39.2 µM (inactive)
- GI50 (DLD-1): 49.7 µM (inactive)
- GI50 (U-251): 22 µM (inactive)
- GI50 (M14): 19.6 µM (inactive)
- GI50 (NCI-H23): 50.8 µM (inactive)
- GI50 (SF-268): 32.6 µM (inactive)
- GI50 (UO-31): > 100 µM (inactive)
- GI50 (NCI-H226): 19.8 µM (inactive)
- GI50 (MOLT-4): 42.1 µM (inactive)
- GI50 (KM12): 29.1 µM (inactive)
- GI50 (M19-MEL): 35.5 µM (inactive)
- GI50 (A549): 33.6 µM (inactive)
- GI50 (LXFL 529): 45.6 µM (inactive)
- GI50 (ACHN): 41.9 µM (inactive)
- GI50 (SNB-78): 32.9 µM (inactive)
- GI50 (HOP-18): 24.7 µM (inactive)
- GI50 (SK-MEL-28): 48.4 µM (inactive)
- GI50 (HL-60): > 100 µM (inactive)
- GI50 (K562): 31.5 µM (inactive)
- GI50 (SK-OV-3): 19.2 µM (inactive)
- GI50 (OVCAR-8): 23.4 µM (inactive)
- GI50 (UACC-62): 25.6 µM (inactive)
- GI50 (SW-620): 38.9 µM (inactive)
- GI50 (OVCAR-3): 19.9 µM (inactive)
- GI50 (RPMI-8226): 91.8 µM (inactive)
- GI50 (EKVX): 92 µM (inactive)
- GI50 (HOP-62): 22.2 µM (inactive)
- GI50 (SN12C): 52 µM (inactive)

Structure (SMILES): COc1ccc2cc3[n+](cc2c1O)CCc1cc2c(cc1-3)OCO2 [BERBERRUBINE CHLORIDE]
- GI50 (Malme-3M): > 100 µM (inactive)
- GI50 (NCI-H522): > 100 µM (inactive)
- GI50 (OVCAR-5): > 100 µM (inactive)
- GI50 (LOX IMVI): 40.4 µM (inactive)
- GI50 (SK-MEL-2): > 100 µM (inactive)
- GI50 (NCI-H460): 54 µM (inactive)
- GI50 (HCT-15): > 100 µM
- GI50 (CCRF-CEM): 80.7 µM (inactive)
- GI50 (SF-539): > 100 µM (inactive)
- GI50 (KM-20L2): > 100 µM (inactive)
- GI50 (SNB-75): > 100 µM (inactive)
- GI50 (UACC-257): > 100 µM (inactive)
- GI50 (SNB-19): > 100 µM (inactive)
- GI50 (HT-29): 96.4 µM (inactive)
- GI50 (COLO 205): > 100 µM (inactive)
- GI50 (IGROV-1): > 100 µM (inactive)
- GI50 (TK-10): > 100 µM (inactive)
- GI50 (A498): > 100 µM (inactive)
- GI50 (OVCAR-4): > 100 µM (inactive)
- GI50 (RXF 393): > 100 µM (inactive)
- GI50 (XF498): > 100 µM (inactive)
- GI50 (SF-295): > 100 µM (inactive)
- GI50 (786-0): > 100 µM (inactive)
- GI50 (HCC 2998): > 100 µM (inactive)
- GI50 (DLD-1): > 100 µM (inactive)
- GI50 (U-251): > 100 µM (inactive)
- GI50 (M14): > 100 µM (inactive)
- GI50 (NCI-H23): 70 µM (inactive)
- GI50 (SF-268): > 100 µM (inactive)
- GI50 (UO-31): > 100 µM (inactive)
- GI50 (NCI-H226): > 100 µM (inactive)
- GI50 (MOLT-4): 52.8 µM (inactive)
- GI50 (KM12): > 100 µM (inactive)
- GI50 (M19-MEL): > 100 µM (inactive)
- GI50 (A549): 96.6 µM (inactive)
- GI50 (LXFL 529): > 10 µM (inactive)
- GI50 (ACHN): 79.8 µM (inactive)
- GI50 (HCT-116): 83 µM (inactive)
- GI50 (SNB-78): > 100 µM (inactive)
- GI50 (HOP-18): > 100 µM (inactive)
- GI50 (SK-MEL-28): > 100 µM (inactive)
- GI50 (HL-60): > 100 µM (inactive)
- GI50 (K562): > 100 µM (inactive)
- GI50 (SK-OV-3): > 100 µM (inactive)
- GI50 (OVCAR-8): > 100 µM (inactive)
- GI50 (UACC-62): > 100 µM (inactive)
- GI50 (SW-620): 92.9 µM (inactive)
- GI50 (OVCAR-3): > 100 µM (inactive)
- GI50 (RPMI-8226): > 100 µM (inactive)
- GI50 (EKVX): > 100 µM (inactive)
- GI50 (HOP-62): > 100 µM (inactive)
- GI50 (SN12C): > 100 µM (inactive)

— ChEMBL document CHEMBL1201862, “PubChem BioAssay data set” (2004)
